The values below come from PubChem BioAssay AID248 (DTP/NCI, 2004).

In the assay the test system is L1210 leukemia ip in BDF1 mice, survival T/C. Put plainly: NCI In Vivo Anticancer Drug Screen. Data for tumor model L1210 Leukemia (intraperitoneal) in B6D2F1 (BDF1) mice. To be noted: endpoint: mean survival time, higher = longer survival. In a few lines: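 In this screen, tumor-bearing mice given compound are compared to those given vehicle, and their survival values are reported as a treated-to-control quotient.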

The mark [1] stands for this setting: dose: 100.0 mg/kg/injection, schedule: Q04DX003 (ip), vehicle: saline with Tween-80.
Setting [2] is: dose: 200.0 mg/kg/injection, schedule: Q04DX003 (ip), vehicle: saline with Tween-80.
The mark [3] stands for this setting: dose: 25.0 mg/kg/injection, schedule: Q01DX009 (ip), vehicle: saline.
The mark [4] stands for this setting: dose: 50.0 mg/kg/injection, schedule: Q01DX009 (ip), vehicle: saline.
[5] abbreviates: dose: 100.0 mg/kg/injection, schedule: Q01DX009 (ip), vehicle: saline.
Setting [6] is: dose: 100.0 mg/kg/injection, schedule: Q01DX001 (ip), vehicle: saline.
The mark [7] stands for this setting: dose: 200.0 mg/kg/injection, schedule: Q01DX001 (ip), vehicle: saline.
The mark [8] stands for this setting: dose: 400.0 mg/kg/injection, schedule: Q01DX001 (ip), vehicle: saline.
Where [9] appears, read: dose: 75.0 mg/kg/injection, schedule: Q01DX001 (ip), vehicle: other.

Several values for one entry are separate records, joined by “and”; a condition that tells them apart may be missing. Equal values may be shown once. Toxic doses and inconclusive results are not listed.

On to `CC(=O)Nc1ccc2c(c1)Cc1c(F)ccc(F)c1-2`, for which the T/C is 98 % of control (dose: 50.0 mg/kg/injection, schedule: Q01DX001 (ip), vehicle: carboxymethylcellulose (CMC)); 91 % of control (dose: 100.0 mg/kg/injection, schedule: Q01DX001 (ip), vehicle: carboxymethylcellulose (CMC)); 91 % of control (dose: 200.0 mg/kg/injection, schedule: Q01DX001 (ip), vehicle: carboxymethylcellulose (CMC)); 98 % of control (dose: 400.0 mg/kg/injection, schedule: Q01DX001 (ip), vehicle: carboxymethylcellulose (CMC)).

`O=C(O)c1ccc(Br)c([N+](=O)[O-])c1`: the T/C (dose: 100.0 mg/kg/injection, schedule: Q01DX009 (ip), vehicle: Klucel (hydroxypropylcellulose) (HPC)) is 95 % of control; the T/C (dose: 200.0 mg/kg/injection, schedule: Q01DX009 (ip), vehicle: Klucel (hydroxypropylcellulose) (HPC)) was 94 % of control; the T/C (dose: 400.0 mg/kg/injection, schedule: Q01DX009 (ip), vehicle: Klucel (hydroxypropylcellulose) (HPC)) was 92 % of control.

Turning to `CC(=O)NNC(N)=S`, the T/C by setting is: (dose: 100.0 mg/kg/injection, schedule: Q04DX002 (ip), vehicle: Klucel (hydroxypropylcellulose) (HPC)) 87 % of control; (dose: 200.0 mg/kg/injection, schedule: Q04DX002 (ip), vehicle: Klucel (hydroxypropylcellulose) (HPC)) 87 % of control; (dose: 400.0 mg/kg/injection, schedule: Q04DX002 (ip), vehicle: Klucel (hydroxypropylcellulose) (HPC)) 97 % of control.

In the case of `Cc1cc(OC(=O)c2ccccc2)cc(C)c1OC(=O)c1ccccc1`, the T/C is 96 % of control (dose: 100.0 mg/kg/injection, schedule: Q04DX002 (ip), vehicle: saline with Tween-80); 100 % of control (dose: 200.0 mg/kg/injection, schedule: Q04DX002 (ip), vehicle: saline with Tween-80); 96 % of control (dose: 400.0 mg/kg/injection, schedule: Q04DX002 (ip), vehicle: saline with Tween-80).

For `CCN(CC)c1cccc(N)c1`, the T/C by setting is: (dose: 25.0 mg/kg/injection, schedule: Q01DX009 (sc), vehicle: olive oil, sesame oil, peanut oil) 100 % of control; (dose: 50.0 mg/kg/injection, schedule: Q01DX009 (sc), vehicle: olive oil, sesame oil, peanut oil) 104 % of control; (dose: 100.0 mg/kg/injection, schedule: Q01DX009 (sc), vehicle: olive oil, sesame oil, peanut oil) 114 % of control; (dose: 100.0 mg/kg/injection, schedule: Q04DX003 (sc), vehicle: olive oil, sesame oil, peanut oil) 110 % of control.

With `CCCCCCCCSCC(=O)O`, the T/C under setting [1] was 103 % of control and the T/C under setting [2] is 97 % of control.

As to `CCCCSc1nc(NCC)nc(NCC)n1`, the T/C is 102 % of control (dose: 100.0 mg/kg/injection, schedule: Q04DX002 (sc), vehicle: olive oil, sesame oil, peanut oil); 105 % of control (dose: 200.0 mg/kg/injection, schedule: Q04DX002 (sc), vehicle: olive oil, sesame oil, peanut oil); 115 % of control (dose: 400.0 mg/kg/injection, schedule: Q04DX002 (sc), vehicle: olive oil, sesame oil, peanut oil).

With `COC1=NS(=O)(=O)CC(N2C(=O)CCC2=O)O1` (configuration not stated), the T/C was 98 % of control (dose: 100.0 mg/kg/injection, schedule: Q04DX003 (ip), vehicle: Klucel (hydroxypropylcellulose) (HPC)); 109 % of control (dose: 200.0 mg/kg/injection, schedule: Q04DX003 (ip), vehicle: Klucel (hydroxypropylcellulose) (HPC)); 101 % of control (dose: 400.0 mg/kg/injection, schedule: Q04DX003 (ip), vehicle: Klucel (hydroxypropylcellulose) (HPC)).

As to `COC1OC(COC(C)=O)C(OC(C)=O)C2C1N2C(N)=S` (configuration not stated), the T/C is, setting by setting: (dose: 100.0 mg/kg/injection, schedule: Q04DX002 (ip), vehicle: saline) 110 % of control; (dose: 400.0 mg/kg/injection, schedule: Q04DX002 (ip), vehicle: saline) 113 % of control.

Take `O=C1C=C(N2CC2)C(=O)C(N2CC2)=C1N1CC1`: the T/C was 112 % of control (dose: 0.07 mg/kg/injection, schedule: Q01DX001 (ip), vehicle: saline); 93 % of control (dose: 0.1 mg/kg/injection, schedule: Q01DX Z (ip), vehicle: saline); 155 % of control (dose: 0.3 mg/kg/injection, schedule: Q01DX001 (ip), vehicle: saline); 87 % of control (dose: 0.6 mg/kg/injection, schedule: Q01DX001 (ip), vehicle: saline); 107 % of control (dose: 6.3 micrograms/kg/injection, schedule: Q01DX015 (ip), vehicle: saline); 102 % of control (dose: 12.5 micrograms/kg/injection, schedule: Q01DX015 (ip), vehicle: saline). Also, the T/C (dose: 25.0 micrograms/kg/injection, schedule: Q01DX015 (ip), vehicle: saline) was 113 % of control and the T/C (dose: 75.0 micrograms/kg/injection, schedule: Q01DX009 (ip), vehicle: saline) was 113 % of control.

On to `CCCCCCCCP(=O)(N1CC1C)N1CC1C` (configuration not stated), for which the T/C is 98 % of control under setting [3]; 104 % of control under setting [4]; 98 % of control under setting [5]; 91 % of control (dose: 100.0 mg/kg/injection, schedule: Q04DX003 (ip), vehicle: saline).

In the case of `O=C(CCN1CCCCC1)c1cccc([N+](=O)[O-])c1`, the T/C reads like this: (dose: 12.0 mg/kg/injection, schedule: Q04DX003 (ip), vehicle: saline) 93 % of control; under setting [3], 111 % of control; (dose: 25.0 mg/kg/injection, schedule: Q04DX003 (ip), vehicle: saline) 101 % of control; under setting [4], 103 % of control; (dose: 50.0 mg/kg/injection, schedule: Q04DX003 (ip), vehicle: saline) 95 % of control; under setting [5], 103 % of control.

On to `O=C(O)CCC1COc2ccccc2O1` (configuration not stated), for which the T/C runs as follows: (dose: 50.0 mg/kg/injection, schedule: Q01DX001 (ip), vehicle: saline) 100 % of control; under setting [6], 108 % of control; under setting [7], 114 % of control; under setting [8], 100 % of control.

Regarding `CC(Cc1ccccc1)Nc1ccccn1` (configuration not stated), the T/C is 97 % of control under setting [9]; 97 % of control (dose: 150.0 mg/kg/injection, schedule: Q01DX001 (ip), vehicle: other); 95 % of control (dose: 300.0 mg/kg/injection, schedule: Q01DX001 (ip), vehicle: other).

As for `Cc1cc(N)ccc1S(=O)(=O)F`, the T/C by setting is: under setting [1], 103 % of control; under setting [2], 103 % of control; (dose: 400.0 mg/kg/injection, schedule: Q04DX003 (ip), vehicle: saline with Tween-80) 100 % of control.

As to `N=C(N)CNC(=O)c1ccccc1C(=O)O`, the T/C (dose: 19.0 mg/kg/injection, schedule: Q01DX009 (ip), vehicle: saline) is 100 % of control; the T/C (dose: 38.0 mg/kg/injection, schedule: Q01DX009 (ip), vehicle: saline) was 92 % of control; the T/C (dose: 75.0 mg/kg/injection, schedule: Q01DX001 (ip), vehicle: saline) is 103 % of control; the T/C (dose: 75.0 mg/kg/injection, schedule: Q01DX009 (ip), vehicle: saline) is 96 % of control; the T/C (dose: 150.0 mg/kg/injection, schedule: Q01DX001 (ip), vehicle: saline) is 107 % of control; the T/C (dose: 150.0 mg/kg/injection, schedule: Q01DX009 (ip), vehicle: saline) is 100 % of control. In addition, the T/C (dose: 300.0 mg/kg/injection, schedule: Q01DX001 (ip), vehicle: saline) was 92 % of control.

Take `CCOC(=O)NC(CI)c1ccccc1` (configuration not stated): the T/C (dose: 50.0 mg/kg/injection, schedule: Q01DX009 (ip), vehicle: saline with Tween-80) was 96 % of control; the T/C (dose: 100.0 mg/kg/injection, schedule: Q01DX009 (ip), vehicle: saline with Tween-80) is 88 % of control; the T/C (dose: 200.0 mg/kg/injection, schedule: Q01DX009 (ip), vehicle: saline with Tween-80) is 96 % of control.

With `O=C1CC2CC1C(C(=O)O)C2C(=O)O` (configuration not stated), the T/C was 98 % of control under setting [6]; 96 % of control under setting [5]; 96 % of control under setting [7]; 96 % of control (dose: 200.0 mg/kg/injection, schedule: Q01DX009 (ip), vehicle: saline); 96 % of control and 98 % of control under setting [8]; 98 % of control (dose: 400.0 mg/kg/injection, schedule: Q01DX009 (ip), vehicle: saline).

For the compound `CCCC(CNC1CCCCC1)OC(=O)c1ccc(N)cc1` (configuration not stated), the T/C under setting [9] was 96 % of control.
